Test results reported in ChEMBL document CHEMBL4842345, “Design, synthesis and biological evaluation of tanshinone IIA-based analogues: Potent inhibitors of microtubule formation and angiogenesis” (Eur J Med Chem, 2021).
pIC50: −log10 of the molar value. Values after ≈ are worked out from the molar mass of the structure shown. Active and inactive are the calls of the source. The rule behind the calls is not given here.

Legend:
HepG2 = experiment: Antiproliferative activity against human HepG2 cells assessed as reduction in cell viability measured after 72 hrs by MTT assay; assay type: functional, cell-based; conditions: HepG2, 72 h
MCF7 = experiment: Antiproliferative activity against human MCF7 cells assessed as reduction in cell viability measured after 72 hrs by MTT assay; assay type: functional, cell-based; conditions: MCF7, 72 h
U-937 = experiment: Antiproliferative activity against human U-937 cells assessed as reduction in cell viability measured after 72 hrs by MTT assay; assay type: functional, cell-based; conditions: U-937, 72 h
Tubulin (Homo sapiens) [1] = molecular target: T1, Tubulin (Homo sapiens) (UniProt P68371+Q9H4B7+P0DPH7+P68366+Q13509+Q71U36+P04350+Q3ZCM7+P07437+P68363+Q9BQE3+Q6PEY2+Q13885+Q9BVA1+Q9BUF5); experiment: Inhibition of tubulin (unknown origin) polymerization assessed as decrease in fluorescence intensity at 12 uM by fluorescence based assay; assay type: protein-complex assay
Tubulin (Homo sapiens) [2] = molecular target: T1, Tubulin (Homo sapiens); experiment: Induction of microtubule distruption in human A549 cells assessed as spindle shaped microtubule structure at 2.5 to 10 uM measured after 48 hrs by immunofluorescence based laser scanning confocal microscopic analysis; assay type: cell-based; conditions: dose 2.5-10 µM
A549 [3] = experiment: Antiproliferative activity against human A549 cells assessed as reduction in cell viability measured after 72 hrs by MTT assay; assay type: functional, cell-based; conditions: A549, 72 h
A549 [4] = experiment: Induction of apoptosis in human A549 cells assessed as early apoptotic cells at 2.5 uM measured after 48 hrs by Annexin V-FITC/PI staining based flow cytometry analysis (Rvb= 0.72%); assay type: functional
A549 [5] = experiment: Induction of apoptosis in human A549 cells assessed as late apoptotic cells at 2.5 uM measured after 48 hrs by Annexin V-FITC/PI staining based flow cytometry analysis (Rvb= 1.47%); assay type: functional
A549 [6] = experiment: Induction of apoptosis in human A549 cells assessed as dead cells at 2.5 uM measured after 48 hrs by Annexin V-FITC/PI staining based flow cytometry analysis (Rvb= 0.67%); assay type: functional
A549 [7] = experiment: Induction of apoptosis in human A549 cells assessed as live cells at 5 uM measured after 48 hrs by Annexin V-FITC/PI staining based flow cytometry analysis (Rvb= 97.1%); assay type: functional
A549 [8] = experiment: Induction of apoptosis in human A549 cells assessed as early apoptotic cells at 5 uM measured after 48 hrs by Annexin V-FITC/PI staining based flow cytometry analysis (Rvb= 0.72%); assay type: functional
A549 [9] = experiment: Induction of apoptosis in human A549 cells assessed as late apoptotic cells at 5 uM measured after 48 hrs by Annexin V-FITC/PI staining based flow cytometry analysis (Rvb= 1.47%); assay type: functional
A549 [10] = experiment: Induction of apoptosis in human A549 cells assessed as dead cells at 5 uM measured after 48 hrs by Annexin V-FITC/PI staining based flow cytometry analysis (Rvb= 0.67%); assay type: functional
A549 [11] = experiment: Induction of apoptosis in human A549 cells assessed as early apoptotic cells at 10 uM measured after 48 hrs by Annexin V-FITC/PI staining based flow cytometry analysis (Rvb= 0.72%); assay type: functional
A549 [12] = experiment: Induction of apoptosis in human A549 cells assessed as late apoptotic cells at 10 uM measured after 48 hrs by Annexin V-FITC/PI staining based flow cytometry analysis (Rvb= 1.47%); assay type: functional
A549 [13] = experiment: Induction of apoptosis in human A549 cells assessed as dead cells at 10 uM measured after 48 hrs by Annexin V-FITC/PI staining based flow cytometry analysis (Rvb= 0.67%); assay type: functional
A549 [14] = experiment: Induction of apoptosis in human A549 cells assessed as activation of the initiator caspase-9 measured after 48 hrs by western blot analysis; assay type: functional, cell-based
A549 [15] = experiment: Induction of apoptosis in human A549 cells assessed as activation of executioner caspase-3 at 2.5 to 10 uM measured after 48 hrs by western blot analysis; assay type: functional, cell-based; conditions: dose 2.5-10 µM
A549 [16] = experiment: Antiproliferative activity against human A549 cells assessed as decrease in DNA synthesis at 2.5 to 10 uM by Edu incorporation assay; assay type: functional, cell-based; conditions: dose 2.5-10 µM
A549 [17] = experiment: Induction of cell cycle arrest in human A549 cells assessed as increase in number of cells accumulation at G2/M phase at 5 uM measured after 48 hrs by flow cytometry analysis (Rvb= 16.72%); assay type: functional
A549 [18] = experiment: Induction of cell cycle arrest in human A549 cells assessed as increase in number of cells accumulation at G2/M phase at 10 uM measured after 48 hrs by flow cytometry analysis (Rvb= 16.72%); assay type: functional
A549 [19] = experiment: Induction of cell cycle arrest in human A549 cells assessed as accumulation of cells at G1 phase at 2.5 uM measured after 48 hrs by flow cytometry analysis (Rvb= 60.29%); assay type: functional
A549 [20] = experiment: Induction of cell cycle arrest in human A549 cells assessed as accumulation of cells at G1 phase at 5 uM measured after 48 hrs by flow cytometry analysis (Rvb= 60.29%); assay type: functional
A549 [21] = experiment: Induction of cell cycle arrest in human A549 cells assessed as accumulation of cells at S phase at 2.5 uM measured after 48 hrs by flow cytometry analysis (Rvb= 24.5%); assay type: functional
A549 [22] = experiment: Induction of cell cycle arrest in human A549 cells assessed as accumulation of cells at S phase at 10 uM measured after 48 hrs by flow cytometry analysis (Rvb= 24.5%); assay type: functional
HUVEC [23] = experiment: Antivascular activity against HUVEC cells assessed as inhibition of capillary-like tubule formation measured after 6 hrs by matrigel matrix based microscopic analysis; assay type: functional, cell-based; conditions: Homo sapiens, dose 0.25-1 µM
HUVEC [24] = experiment: Antivascular activity against HUVEC cells assessed as reduction in number of branching points measured after 6 hrs by imaging analysis; assay type: functional, cell-based; conditions: Homo sapiens, dose 0.25-1 µM
HUVEC [25] = experiment: Antivascular activity against HUVEC cells assessed as segment length measured after 6 hrs by imaging analysis; assay type: functional, cell-based; conditions: Homo sapiens, dose 0.25-1 µM
HUVEC [26] = experiment: Antivascular activity against HUVEC cells assessed as reduction in area and number of meshes measured after 6 hrs by imaging analysis; assay type: functional, cell-based; conditions: Homo sapiens, dose 0.25-1 µM
HUVEC [27] = experiment: Inhibition of cell migration in HUVEC cells assessed as decrease in closure of wound scratching measured after 48 hrs by wound healing assay; assay type: functional, cell-based; conditions: Homo sapiens, dose 0.25-1 µM
A549 [28] = experiment: Inhibition of cell migration in human A549 cells assessed as decrease in wound healing rate at 0.5 to 2 uM measured after 48 hrs by wound healing assay; assay type: functional, cell-based; conditions: dose 0.5-2 µM
A549 [29] = experiment: Antiinvasive activity in human A549 cells assessed as decrease in number of migrated A549 cells at 0.5 to 2 uM measured after 48 hrs by crystal violet staining based transwell assay; assay type: functional, cell-based; conditions: dose 0.5-2 µM
Danio rerio [30] = organism: Danio rerio; experiment: Antiangiogenic activity in transgenic Tg(flk:EGFP) zebra fish embryos assessed as reduction in number of intersegmental vessels measured at 30 hrs post fertilization by confocal fluorescence microscopy analysis; assay type: functional, organism-based; conditions: dose 1-4 µM
Danio rerio [31] = organism: Danio rerio; experiment: Antiangiogenic activity in transgenic Tg(flk:EGFP) zebra fish embryos assessed as reduction in length of intersegmental vessels measured at 30 hrs post fertilization by confocal fluorescence microscopy analysis; assay type: functional, organism-based; conditions: dose 1-4 µM
[32] = Kinetic solubility of the compound at pH 2 by nephelometry; assay type: physicochemical; conditions: buffer, read-out: Kinetic_solubility
[33] = Kinetic solubility of the compound at pH 6.5 by nephelometry; assay type: physicochemical; conditions: buffer, read-out: Kinetic_solubility
[34] = Metabolic stability in human liver microsomes assessed as degradation half life; assay type: ADME, Microsome; conditions: microsomes
Tubulin (Homo sapiens) [35] = molecular target: T1, Tubulin (Homo sapiens); experiment: Displacement of [3H]colchicine binding to tubulin (unknown origin); assay type: protein-complex assay

COc1ccc2c(c1)-c1occ(C)c1C(=O)C2=O
pIC50 (HepG2): 5.70
pIC50 (MCF7): 5.50
pIC50 (U-937): 5.56
inhibition (Tubulin (Homo sapiens) [1]): Active
Activity (Tubulin (Homo sapiens) [2]): inactive
pIC50 (A549 [3]): 6.49
Activity (A549 [4]): 1.55%
Activity (A549 [5]): 3.28%
Activity (A549 [6]): 0.68%
Activity (A549 [7]): 82.8%
Activity (A549 [8]): 10.3%
Activity (A549 [9]): 5.58%
Activity (A549 [10]): 1.28%
Activity (A549 [11]): 80.2%
Activity (A549 [12]): 8.19%
Activity (A549 [13]): 0.5%
Activity (A549 [14]): Dose-Dependent Effect
Activity (A549 [15]): Active
Activity (A549 [16]): Active
Activity (A549 [17]): 20%
Activity (A549 [18]): 32.19%
Activity (A549 [19]): 61.93%
Activity (A549 [20]): 54.43%
Activity (A549 [21]): 21.27%
Activity (A549 [22]): 13.48%
Activity (HUVEC [23]): Active
Activity (HUVEC [24]): Dose-Dependent Effect
Activity (HUVEC [25]): Dose-Dependent Effect
Activity (HUVEC [26]): Dose-Dependent Effect
inhibition (HUVEC [27]): Dose-Dependent Effect
inhibition (A549 [28]): Active
Activity (A549 [29]): Active
Activity (Danio rerio [30]): Dose-Dependent Effect
Activity (Danio rerio [31]): Dose-Dependent Effect
solubility kinetic [32]: 250 µg/mL (≈ 1030 µM)
solubility kinetic [33]: 405 µg/mL (≈ 1670 µM)
t1/2 [34]: 108 min
Activity (Tubulin (Homo sapiens) [35]): Active
